Measured values reported in US20250376464A1 (Trawsfynydd Therapeutics, Inc., priority 2022, published 2025).

Target: SARS-CoV2-Mpro (Severe acute respiratory syndrome coronavirus 2 (2019-nCoV) (SARS-CoV-2), UniProt P0DTD1)
Assay: Primary assay: SARS-CoV2-Mpro enzymatic activity inhibition
Format: biochemical
Conditions: enzyme preincubated with compound for 20 min; slope of linear portion of signal
Method: Example A. Primary Assay Used to Determine Potency of SARS-CoV2-Mpro Enzymatic Activity Inhibition
• (1) Deliver 2× Enzyme • (2) Deliver buffer into No Enzyme wells • (3) Deliver compounds in 100% DMSO by using Acoustic technology (Echo550; nanoliter range) • (4) Incubate for 20 min • (5) Deliver 2× Substrate to initiate the reaction • (6) Spin & shake, start measuring in EnVision at rt; 5 min interval for 25 (2 hours) • (7) Analyze data by taking slope (signal/time) of linear portion of measurement • (8) Slope is calculated by using Excel, and curve fits are performed using Prism software.
The % inhibition was then used to calculate the IC50 values. The IC50 values are shown in Table A, wherein “A” corresponds to IC50<10.0 nm, “B” corresponds to 10.0 nm≤IC50<50.0 nm, “C” corresponds to 50.0 nm≤IC50<100.0 nm, “D” corresponds to 100.0 nm≤IC50<500.0 nm, and “E” corresponds to 500.0 nm≤IC50<1000.0 nm, and “F” corresponds to 1000.0 nm≤IC50.

| SMILES | IC50 [nM] |
| --- | --- |
| CC(C)(C)[C@H](NC(=O)C(F)(F)F)C(=O)N1CCC2(CC2)CC1C(=O)N[C@H](C#N)C[C@@H]1CCNC1=O (mixture of isomers) [Compound 206, N—((S)-1-Cyano-2-((S)-2-oxopyrrolidin-3-yl)ethyl)-6-((S)-3,3-dimethyl-2-(2,2,2-trifluoroacetamido)butanoyl)-6-azaspiro[2.5]octane-5-carboxamide] | 10 to 50 |
| CC(C)(C)[C@H](NS(C)(=O)=O)C(=O)N1C[C@H]2C([C@H]1C(=O)N[C@H](C#N)C[C@@H]1CCNC1=O)C2(C)C (stereo in doubt) [Compound 201, (1R,2S,5S)—N—((S)-1-Cyano-2-((S)-2-oxopyrrolidin-3-yl)ethyl)-3-((S)-3,3-dimethyl-2-(methylsulfonamido)butanoyl)-6,6-dimethyl-3-azabicyclo[3.1.0]hexane-2-carboxamide] | 10 to 50 |
| CC(C)(C)[C@H](NS(=O)(=O)CC(F)(F)F)C(=O)N1C[C@H]2C([C@H]1C(=O)N[C@H](C#N)C[C@@H]1CCNC1=O)C2(C)C (stereo in doubt) [Compound 209, (1R,2S,5S)—N-[(1S)-1-cyano-2-[(3S)-2-oxopyrrolidin-3-yl]ethyl]-3-[(2S)-3,3-dimethyl-2-(2,2,2-trifluoroethylsulfonylamino)butanoyl]-6,6-dimethyl-3-azabicyclo[3.1.0]hexane-2-carboxamide] | 10 to 50 |
| CC(C)(C)[C@H](NC(=O)C(F)(F)F)C(=O)N1C[C@H]2C([C@H]1C(=O)N[C@H](C#N)CC1C(=O)Nc3ccccc31)C2(C)C (stereo in doubt) [Compound 217, (1R,2S,5S)—N-((1S)-1-Cyano-2-(2-oxoindolin-3-yl)ethyl)-3-((S)-3,3-dimethyl-2-(2,2,2-trifluoroacetamido)butanoyl)-6,6-dimethyl-3-azabicyclo[3.1.0]hexane-2-carboxamide] | < 10 |
| CC(C)(C)[C@H](NC(=O)C(F)(F)F)C(=O)N1C[C@H]2C([C@H]1C(=O)NC(C#N)CC1(F)C(=O)Nc3ccccc31)C2(C)C (stereo in doubt) [Compound 227, (1S,2S,5S)-N-[1-cyano-2-(3-fluoro-2-oxo-indolin-3-yl)ethyl]-3-[(2S)-3,3-dimethyl-2-[(2,2,2-trifluoroacetyl)amino]butanoyl]-6,6-dimethyl-3-azabicyclo[3.1.0]hexane-2-carboxamide] | 10 to 50 |
| CC(C)(C)[C@H](NC(=O)C(F)(F)F)C(=O)N1C[C@H]2C(C1C(=O)N[C@H](C#N)CC1(F)C(=O)Nc3ccccc31)C2(C)C (stereo in doubt) [Compound 228, (1S,2S,5S)-N-[(1S)-1-cyano-2-(3-fluoro-2-oxo-indolin-3-yl)ethyl]-3-[(2S)-3,3-dimethyl-2-[(2,2,2-trifluoroacetyl)amino]butanoyl]-6,6-dimethyl-3-azabicyclo[3.1.0]hexane-2-carboxamide] | 10 to 50 |
| Cc1ccc2c(c1)C(F)(CC(C#N)NC(=O)C1C3[C@H](CN1C(=O)[C@@H](NC(=O)C(F)(F)F)C(C)(C)C)C3(C)C)C(=O)N2 (stereo in doubt) [Compound 229, (1S,2S,5S)-N-[1-cyano-2-(3-fluoro-5-methyl-2-oxo-indolin-3-yl)ethyl]-3-[(2S)-3,3-dimethyl-2-[(2,2,2-trifluoroacetyl)amino]butanoyl]-6,6-dimethyl-3-azabicyclo[3.1.0]hexane-2-carboxamide] | 10 to 50 |
| Cc1ccc2c(c1)C(CC(C#N)NC(=O)C1C3[C@H](CN1C(=O)[C@@H](NC(=O)C(F)(F)F)C(C)(C)C)C3(C)C)C(=O)N2 (stereo in doubt) [Compound 230, (1S,2S,5S)-N-[1-cyano-2-(5-methyl-2-oxo-indolin-3-yl)ethyl]-3-[(2S)-3,3-dimethyl-2-[(2,2,2-trifluoroacetyl)amino]butanoyl]-6,6-dimethyl-3-azabicyclo[3.1.0]hexane-2-carboxamide] | 10 to 50 |
| CN(C(=O)[C@@H]1C2[C@H](CN1C(=O)[C@@H](NC(=O)C(F)(F)F)C(C)(C)C)C2(C)C)[C@H](C#N)CC1C(=O)Nc2ccccc21 (stereo in doubt) [Compound 231, (1S,2S,5S)-N-[(1S)-1-cyano-2-(2-oxoindolin-3-yl)ethyl]-3-[(2S)-3,3-dimethyl-2-[(2,2,2-trifluoroacetyl)amino]butanoyl]-N,6,6-trimethyl-3-azabicyclo[3.1.0]hexane-2-carboxamide] | 50 to 100 |
| CC(C)(C)[C@H](NC(=O)C(F)(F)F)C(=O)N1C[C@H]2C([C@H]1C(=O)N[C@H](C#N)CC1C(=O)Nc3ccc(Br)cc31)C2(C)C (stereo in doubt) [Compound 232, (1S,2S,5S)-N-[(1S)-2-(5-bromo-2-oxo-indolin-3-yl)-1-cyano-ethyl]-3-[(2S)-3,3-dimethyl-2-[(2,2,2-trifluoroacetyl)amino]butanoyl]-6,6-dimethyl-3-azabicyclo[3.1.0]hexane-2-carboxamide] | 10 to 50 |
| CC(C)(C)[C@H](NC(=O)C(F)(F)F)C(=O)N1C[C@H]2C([C@H]1C(=O)N[C@H](C#N)CC1C(=O)Nc3cc(Br)ccc31)C2(C)C (stereo in doubt) [Compound 233, (1S,2S,5S)-N-[(1S)-2-(6-bromo-2-oxo-indolin-3-yl)-1-cyano-ethyl]-3-[(2S)-3,3-dimethyl-2-[(2,2,2-trifluoroacetyl)amino]butanoyl]-6,6-dimethyl-3-azabicyclo[3.1.0]hexane-2-carboxamide] | 50 to 100 |
| Cc1cccc2c1C(C[C@@H](C#N)NC(=O)[C@@H]1C3[C@H](CN1C(=O)[C@@H](NC(=O)C(F)(F)F)C(C)(C)C)C3(C)C)C(=O)N2 (stereo in doubt) [Compound 234, (1S,2S,5S)-N-[(1S)-1-cyano-2-(4-methyl-2-oxo-indolin-3-yl)ethyl]-3-[(2S)-3,3-dimethyl-2-[(2,2,2-trifluoroacetyl)amino]butanoyl]-6,6-dimethyl-3-azabicyclo[3.1.0]hexane-2-carboxamide] | 500 to 1000 |
| CC(C)(C)[C@H](NC(=O)C(F)(F)F)C(=O)N1C[C@H]2C([C@H]1C(=O)N[C@H](C#N)CC1C(=O)Nc3c(Cl)cccc31)C2(C)C (stereo in doubt) [Compound 235, (1S,2S,5S)-N-[(1S)-2-(7-chloro-2-oxo-indolin-3-yl)-1-cyano-ethyl]-3-[(2S)-3,3-dimethyl-2-[(2,2,2-trifluoroacetyl)amino]butanoyl]-6,6-dimethyl-3-azabicyclo[3.1.0]hexane-2-carboxamide] | < 10 |
| CC(C)(C)[C@H](NC(=O)C(F)(F)F)C(=O)N1C[C@H]2C([C@H]1C(=O)N[C@H](C#N)CC1C(=O)Nc3ccc(F)cc31)C2(C)C (stereo in doubt) [Compound 236, (1S,2S,5S)-N-[(1S)-1-cyano-2-(5-fluoro-2-oxo-indolin-3-yl)ethyl]-3-[(2S)-3,3-dimethyl-2-[(2,2,2-trifluoroacetyl)amino]butanoyl]-6,6-dimethyl-3-azabicyclo[3.1.0]hexane-2-carboxamide] | 10 to 50 |
| CC(C)(C)[C@H](NS(C)(=O)=O)C(=O)N1C[C@H]2C([C@H]1C(=O)N[C@H](C#N)CC1C(=O)Nc3ccccc31)C2(C)C (stereo in doubt) [Compound 237, (1S,2S,5S)-N-[(1S)-1-cyano-2-(2-oxoindolin-3-yl)ethyl]-3-[(2S)-2-(methanesulfonamido)-3,3-dimethyl-butanoyl]-6,6-dimethyl-3-azabicyclo[3.1.0]hexane-2-carboxamide] | < 10 |
| CC(C)(C)[C@H](NS(C)(=O)=O)C(=O)N1C[C@H]2C([C@H]1C(=O)N[C@H](C#N)C[C@@H]1C(=O)Nc3ccccc31)C2(C)C (stereo in doubt) [Compound 238, (1S,2S,5S)-N-[(1S)-1-cyano-2-(2-oxoindolin-3-yl)ethyl]-3-[(2S)-2-(methanesulfonamido)-3,3-dimethyl-butanoyl]-6,6-dimethyl-3-azabicyclo[3.1.0]hexane-2-carboxamide] | < 10 |
| CC(C)(C)[C@H](NC(=O)C(F)(F)F)C(=O)N1C[C@H]2C([C@H]1C(=O)N[C@H](C#N)C[C@]1(C)C(=O)Nc3ccccc31)C2(C)C (stereo in doubt) [Compound 239, (1S,2S,5S)-N-[1-cyano-2-(3-methyl-2-oxo-indolin-3-yl)ethyl]-3-[(2S)-3,3-dimethyl-2-[(2,2,2-trifluoroacetyl)amino]butanoyl]-6,6-dimethyl-3-azabicyclo[3.1.0]hexane-2-carboxamide] | ≥ 1000 |
| COC(=O)N[C@H](C(=O)N1C[C@H]2C([C@H]1C(=O)N[C@H](C#N)CC1C(=O)Nc3ccccc31)C2(C)C)C(C)(C)C (stereo in doubt) [Compound 243, Methyl N-[(1S)-1-[(1S)-2-[[(1S)-1-cyano-2-(2-oxoindolin-3-yl)ethyl]carbamoyl]-6,6-dimethyl-3-azabicyclo[3.1.0]hexane-3-carbonyl]-2,2-dimethyl-propyl]carbamate] | < 10 |
| CCOC(=O)N[C@H](C(=O)N1C[C@H]2C([C@H]1C(=O)N[C@H](C#N)CC1C(=O)Nc3ccccc31)C2(C)C)C(C)(C)C (stereo in doubt) [Compound 244, Ethyl N-[(1S)-1-[(1S)-2-[[(1S)-1-cyano-2-(2-oxoindolin-3-yl)ethyl]carbamoyl]-6,6-dimethyl-3-azabicyclo[3.1.0]hexane-3-carbonyl]-2,2-dimethyl-propyl]carbamate] | 10 to 50 |
| CCOC(=O)N[C@@H](CC(C)C)C(=O)N1C[C@H]2C([C@H]1C(=O)N[C@H](C#N)CC1C(=O)Nc3ccccc31)C2(C)C (stereo in doubt) [Compound 246, ethyl N-[(1S)-1-[(1S,2S,5S)-2-[[(1S)-1-cyano-2-(2-oxoindolin-3-yl)ethyl]carbamoyl]-6,6-dimethyl-3-azabicyclo[3.1.0]hexane-3-carbonyl]-3-methyl-butyl]carbamate] | 10 to 50 |
